# Experimental data from patent publication US20230339891A1, “URACIL DERIVATIVES AS MER-AXL INHIBITORS” (BRISTOL-MYERS SQUIBB COMPANY, priority 2018, published 2023).
# Tests used:
# [1] = biological target: GST-MERTK 578-872 (Homo sapiens (Human), UniProt Q12866); assay: MERTK kinase homogeneous time resolved fluorescence (HTRF) binding assay; settings: 1 nM kinase, fluorescein-labeled kinase tracer at Kd, 60 minutes at room temperature; read-out: Mer HTRF IC50
# In short: (§1)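 HTRF binding read-out after 60 min at room temperature, expressed as the 520/495 nm (fluorescein/terbium) ratio. Inhibition normalized to no-protein (100%) and vehicle (0%) controls. IC50 from 11-point dose-response; compounds from 10 mM DMSO stocks.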
# [2] = biological target: HIS-AXL 473-End (Homo sapiens (Human), UniProt P30530); assay: AXL kinase homogeneous time resolved fluorescence (HTRF) binding assay; settings: 1 nM kinase, fluorescein-labeled kinase tracer at Kd, 60 minutes at room temperature
# In short: as §1
# Chain of GST-MERTK 578-872 (Q12866 578-872): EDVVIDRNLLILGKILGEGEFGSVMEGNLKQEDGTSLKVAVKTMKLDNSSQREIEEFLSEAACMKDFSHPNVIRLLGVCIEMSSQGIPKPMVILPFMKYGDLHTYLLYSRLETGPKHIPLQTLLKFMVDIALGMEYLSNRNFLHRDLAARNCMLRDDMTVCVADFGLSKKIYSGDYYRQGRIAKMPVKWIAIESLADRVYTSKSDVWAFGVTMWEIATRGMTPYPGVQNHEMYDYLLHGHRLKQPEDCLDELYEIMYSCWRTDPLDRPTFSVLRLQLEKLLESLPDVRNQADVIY
# Chain of HIS-AXL 473-End (P30530 473-894): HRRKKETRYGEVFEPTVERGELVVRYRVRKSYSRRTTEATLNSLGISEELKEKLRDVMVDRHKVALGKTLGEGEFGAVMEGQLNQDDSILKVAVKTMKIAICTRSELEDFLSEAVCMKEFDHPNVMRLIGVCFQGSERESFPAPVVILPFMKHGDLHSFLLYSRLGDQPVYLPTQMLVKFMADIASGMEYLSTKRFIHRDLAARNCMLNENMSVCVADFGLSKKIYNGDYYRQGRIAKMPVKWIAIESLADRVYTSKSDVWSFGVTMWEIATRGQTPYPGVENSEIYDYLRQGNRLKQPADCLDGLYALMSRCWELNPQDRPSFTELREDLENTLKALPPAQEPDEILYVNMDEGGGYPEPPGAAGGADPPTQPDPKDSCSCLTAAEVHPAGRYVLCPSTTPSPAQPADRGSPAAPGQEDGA
Compound,IC50 [1] [nM],IC50 [2] [nM]
"CC(C)n1cc(C(=O)Nc2ccc(Oc3ccnc(Nc4nc(N5CCN(S(C)(=O)=O)CC5)ccc4F)c3)c(F)c2)c(=O)n(-c2ccc(F)cc2)c1=O [Example 135, N-{3-fluoro-4-[(2-{[3-fluoro-6-(4-methanesulfonylpiperazin-1-yl)pyridin-2-yl]amino}pyridin-4-yl)oxy]phenyl}-3-(4-fluorophenyl)-2,4-dioxo-1-(propan-2-yl)-1,2,3,4-tetrahydropyrimidine-5-carboxamide]",1,1.1
"Cc1cc(Nc2cc(Oc3ccc(NC(=O)c4cn(C(C)C)c(=O)n(-c5ccc(F)cc5)c4=O)cc3F)ccn2)nc(N2CCN(S(C)(=O)=O)CC2)c1 [Example 136, N-{3-fluoro-4-[(2-{[6-(4-methanesulfonylpiperazin-1-yl)-4-methylpyridin-2-yl]amino}pyridin-4-yl)oxy]phenyl}-3-(4-fluorophenyl)-2,4-dioxo-1-(propan-2-yl)-1,2,3,4-tetrahydropyrimidine-5-carboxamide]",3.9,1040
"Cc1cnc(Nc2cc(Oc3ccc(NC(=O)c4cn(C(C)C)c(=O)n(-c5ccc(F)cc5)c4=O)cc3F)ccn2)nc1N1CCN(S(C)(=O)=O)CC1 [Example 137, N-(3-fluoro-4-[(2-{[4-(4-methanesulfonylpiperazin-1-yl)-5-methylpyrimidin-2-yl]amino}pyridin-4-yl)oxy]phenyl)-3-(4-fluorophenyl)-2,4-dioxo-1-(propan-2-yl)-1,2,3,4-tetrahydropyrimidine-5-carboxamide]",3.6,3.4
"CC(C)n1cc(C(=O)Nc2ccc(Oc3ccnc(Nc4ccc(C(F)(F)F)c(N5CCN(S(C)(=O)=O)CC5)n4)c3)c(F)c2)c(=O)n(-c2ccc(F)cc2)c1=O [Example 138, N-{3-fluoro-4-[(2-{[6-(4-methanesulfonylpiperazin-1-yl)-5-(trifluoromethyl)pyridin-2-yl]amino}pyridin-4-yl)oxy]phenyl}-3-(4-fluorophenyl)-2,4-dioxo-1-(propan-2-yl)-1,2,3,4-tetrahydropyrimidine-5-carboxamide]",20,23
COC(=O)N1CCN(c2nc(Nc3cc(Oc4ccc(NC(=O)c5cn(C(C)C)c(=O)n(-c6ccc(F)cc6)c5=O)cc4F)ccn3)ccc2C(F)(F)F)CC1 [Example 139],11,77
CC(C)n1cc(C(=O)Nc2ccc(Oc3ccnc(Nc4ccc(C(F)(F)F)c(N5CCN(S(=O)(=O)N(C)C)CC5)n4)c3)c(F)c2)c(=O)n(-c2ccc(F)cc2)c1=O [Example 141],17,14700
